The values below come from article PMC11513924, “Addressing the Intracellular Vestibule of the Plasmodial Lactate Transporter PfFNT by p-Substituted Inhibitors Amplifies In Vitro Activity” (Journal of Medicinal Chemistry, 2024).

Experiment [1] deals with T1, PfFNT (Plasmodium falciparum, UniProt O77389).
T1 construct: expressed in transfected cells; membranes solubilized
T1 sequence (O77389 1-309): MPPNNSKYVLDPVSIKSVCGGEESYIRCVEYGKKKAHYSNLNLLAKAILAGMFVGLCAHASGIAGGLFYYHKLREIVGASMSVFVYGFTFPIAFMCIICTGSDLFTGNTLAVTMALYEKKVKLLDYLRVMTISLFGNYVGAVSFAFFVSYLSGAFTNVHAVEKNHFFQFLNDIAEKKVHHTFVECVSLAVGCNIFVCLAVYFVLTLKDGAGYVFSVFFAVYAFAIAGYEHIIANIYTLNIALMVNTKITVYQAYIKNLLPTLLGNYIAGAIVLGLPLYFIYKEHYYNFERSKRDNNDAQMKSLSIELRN
Kind of experiment: Yeast-based PfFNT 14C-lactate transport assay. Type of experiment: cell-based. Particulars: 14C-lactate transport, PfFNT wild type; read-out: IC50 (transport, yeast). As to the method:
(§1) Lactate transport functionality of PfFNT was assayed as described before.[4] Briefly, Saccharomyces cerevisiae W303-1A jen1Δady2Δcells[32] (MATa, can1-100, ade2-loc, his3-11-15, leu2-3,-112, trp1-1-1, ura3-1, jen1::kanMX4, ady2::hphMX4) kindly provided by M. Casal expressing PfFNT was grown at 29 °C to an OD600 of 1 (±0.1). Harvested cells were resuspended to an OD600 of 50 (±5) in 50 mM HEPES/Tris, pH 6.8 (±0.1). 10–15 min prior to the assay, 80 μL of yeast suspension were added to 1 μL of DMSO with or without inhibitor in a 1.5 mL reaction tube at 18 °C. Twenty μL of L-lactate solution spiked with [1-^14C]-L-lactate (Hartmann Analytic) was added yielding a 1 mM inward gradient with 0.04 μCi label. Transport was stopped after 30 s by abrupt dilution with 1 mL of ice-cold water, vacuum filtration via GF/C filter membranes (Whatman), and washing with 7 mL of ice-cold water. The radio label was analyzed by liquid scintillation counting in 3 mL of scintillation cocktail (Rotiszint eco plus, Carl Roth) using a Packard TriCarb 2900 TR (PerkinElmer Inc.).
(§2) Transport assays in yeast were done in triplicate biological replicates. At least nine technical replicates were measured around the IC50 value, concentrations with no or full inhibition were determined from at least three technical replicates. EC50-values were determined from 2 to 4 biological replicates. IC50 and EC50 curves were fitted by the Hill equation with variable slope (Graph Pad Prism 10). Error bars denote ± SEM (for n ≥ 3) or ± range (for n = 2). For the EC50-value of 7a the error of the fitting of the curve is given. Cytotoxicity was determined from biological triplicates; error is shown as SEM.

For experiment [2], the target named is T1, PfFNT. Kind of experiment: Fluorescence cross-correlation spectroscopy (FCCS) competition binding to solubilized PfFNT-GFP. As to the method: FCCS measurements were conducted and analyzed as before.[20],[30] Briefly, membranes of stably transfected cells expressing PfFNT with a C-terminal GFP (green) were solubilized. BH267.meta 2 fused with DY647 (red) was used as a tracer to monitor the binding of compounds in a competition assay. Assays were done in […] glass bottom plates (cat. no. PS96B-G175, SWISSCI, Switzerland) using a plate reader (Insight, Evotec Technologies, Germany) fitted with a U-Apo300 40× water immersion lens, NA 1.15 (Olympus, Japan). Excitation was done with an argon-ion laser (488 nm) and a helium–neon laser (633 nm). Fluorescence fluctuations were recorded 10 times for 5 s per sample and fitted using FCS+ plus Analyze (PerkinElmer software). Initially, IC50 values were determined from the concentration of the dual labeled complex titrated against a competitor in a range of 100 pM to 100 μM (Figure S1). Then, Ki values were calculated using the Cheng Prusoff equation[31] based on the previously determined KD value for the BH267.meta-DY647 tracer.[20]

Experiment [3] concerns Plasmodium falciparum 3D7 parasites. The experiment can be described thus: P. falciparum 3D7 culture growth assay in erythrocytes (in vitro activity). Type of experiment: cell-based. Conditions: Plasmodium falciparum, 3D7, Erythrocyte; for activity at 0.05 µM / activity at 0.1 µM / activity at 0.2 µM: 48 h, % of untreated control; for activity at 0.05 µM: read-out: % Growth at 50 nM (in vitro, 3D7); for activity at 0.1 µM: 100 nM compound, read-out: % Growth at 100 nM (in vitro, 3D7); for activity at 0.2 µM: 200 nM compound, read-out: % Growth at 200 nM (in vitro, 3D7). As to the method: The parasitemia was measured using an LSR II FACS (BD Biosciences) as described.[34],[35] Growth was assessed as % of untreated control. EC50 curves were plotted using Graph Pad Prism.
Transport assays in yeast were done in triplicate biological replicates. At least nine technical replicates were measured around the IC50 value, concentrations with no or full inhibition were determined from at least three technical replicates. […] IC50 and EC50 curves were fitted by the Hill equation with variable slope (Graph Pad Prism 10). Error bars denote ± SEM (for n ≥ 3) or ± range (for n = 2). […] Cytotoxicity was determined from biological triplicates; error is shown as SEM.

A further experiment has as its target T2, PfFNT G107S (Plasmodium falciparum, UniProt O77389, G107S).
T2 construct: expressed in transfected cells; host or cells: Saccharomyces cerevisiae (yeast transport assay; strain as for wild type, inferred from the shared method)
T2 sequence (O77389 1-309 G107S): T1 sequence (O77389 1-309) with G107S
The experiment can be described thus: Yeast-based 14C-lactate transport assay, PfFNT G107S resistance mutant. Format: cell-based. As to the method: as §1, §2

The structures appear in SMILES notation. Positions count from the first letter of the chain named.

By IC50 is commonly meant the concentration at which inhibition is half-maximal. In general, Ki refers to a dissociation constant, usually derived from enzyme kinetics or from competition with a known ligand. A high value points to a looser hold on the target. Regarding `O=C(/C=C(\O)C(F)(F)C(F)(F)F)c1ccc(NC2CC2)nc1` [7k, 1-(6-(Cyclopropylamino)pyridin-3-yl)-4,4,5,5,5-pentafluoro-3-hydroxypent-2-en-1-one], the IC50 on PfFNT [1] turned out to be 190 ± 20 nM. This molecule also yielded a Ki on PfFNT [2] of 10 ± 2 nM. For the same molecule, the activity at 0.05 µM in experiment [3] (50 nM compound) amounted to 44%. In addition, in experiment [3], the activity at 0.1 µM is 11% and the activity at 0.2 µM was found to be 5%.
`O=C(/C=C(\O)C(F)(F)C(F)(F)F)c1ccc(NC2CCC2)nc1` [7l, 1-(6-(Cyclobutylamino)pyridin-3-yl)-4,4,5,5,5-pentafluoro-3-hydroxypent-2-en-1-one]: the IC50 on PfFNT [1] stood at 260 ± 30 nM. Moreover, the affinity on PfFNT [2] corresponds to a Ki of 23 ± 7 nM. In experiment [3] (50 nM compound), the activity at 0.05 µM turned out to be 59%. In experiment [3], the activity at 0.1 µM is 16% and the activity at 0.2 µM stood at 7%.
Turning to `O=C(/C=C(\O)C(F)(F)C(F)(F)F)c1ccc(NCC2CC2)nc1` [7m, 1-(6-((Cyclopropylmethyl)amino)pyridin-3-yl)-4,4,5,5,5-pentafluoro-3-hydroxypent-2-en-1-one], the IC50 on PfFNT [1] was 170 ± 10 nM. On PfFNT [2], this molecule returned a Ki of 18 ± 3 nM. Besides, the activity at 0.05 µM in experiment [3] (50 nM compound) was 6%. Besides, in experiment [3], the activity at 0.1 µM was 3% and the activity at 0.2 µM worked out at 2%. Moreover, in experiment [3] (50 nM compound, 100 minus % growth, read-out: inhibitory activity at 50 nM (in vitro, 3D7)), the inhibition at 0.05 µM worked out at 94%.
In the case of `CC(C)Nc1ccc(C(=O)/C=C(\O)C(F)(F)C(F)(F)F)cn1` [7n, 4,4,5,5,5-Pentafluoro-3-hydroxy-1-(6-(isopropylamino)pyridin-3-yl)pent-2-en-1-one], the IC50 at PfFNT [1] worked out at 150 ± 10 nM. At PfFNT [2], this molecule yielded a Ki of 67 ± 11 nM. Also, in experiment [3] (50 nM compound), the activity at 0.05 µM is 53%. In addition, in experiment [3], the activity at 0.1 µM stood at 31% and the activity at 0.2 µM came out at 15%.
Taken in the same sequence, the figures for `CC(C)(C)Nc1ccc(C(=O)/C=C(\O)C(F)(F)C(F)(F)F)cn1` [7o, 1-(6-(tert-Butylamino)pyridin-3-yl)-4,4,5,5,5-pentafluoro-3-hydroxypent-2-en-1-one] were 370 ± 40 nM, 239 ± 101 nM, 97%, 97% and 93%.
The corresponding values for `O=C(/C=C(\O)C(F)(F)C(F)(F)F)c1ccc(NCc2ccc(F)cc2)nc1` [7p, 4,4,5,5,5-Pentafluoro-1-(6-((4-fluorobenzyl)amino)pyridin-3-yl)-3-hydroxypent-2-en-1-one] are 390 ± 30 nM, 16 ± 3 nM, 37%, 7% and 0%.
Turning to `COc1cc(CNc2ccc(C(=O)/C=C(\O)C(F)(F)C(F)(F)F)cn2)cc(OC)c1OC` [7q, 4,4,5,5,5-Pentafluoro-3-hydroxy-1-(6-((3,4,5-trimethoxybenzyl)amino)pyridin-3-yl)pent-2-en-1-one], on PfFNT [1], the IC50 is 2110 ± 320 nM. On PfFNT [2], this molecule registered a Ki of 49 ± 12 nM. Further, in experiment [3] (50 nM compound), the activity at 0.05 µM came out at 107%. In addition, in experiment [3], the activity at 0.1 µM is 105% and the activity at 0.2 µM worked out at 117%.
For the molecule `CCCN(C)c1ccc(C(=O)/C=C(\O)C(F)(F)C(F)(F)F)cn1` [7r, 4,4,5,5,5-Pentafluoro-3-hydroxy-1-(6-(methyl(propyl)amino)pyridin-3-yl)pent-2-en-1-one], on PfFNT [1], the IC50 was found to be 350 ± 80 nM. At PfFNT [2], the affinity, expressed as Ki, was 98 ± 11 nM. Moreover, in experiment [3] (50 nM compound), the activity at 0.05 µM is 114%. Further, the activity at 0.2 µM in experiment [3] was 96%.
Take `CCN(CC)c1ccc(C(=O)/C=C(\O)C(F)(F)C(F)(F)F)cn1` [7s, 1-(6-(Diethylamino)pyridin-3-yl)-4,4,5,5,5-pentafluoro-3-hydroxypent-2-en-1-one]: the IC50 at PfFNT [1] stood at 380 ± 20 nM. At PfFNT [2], this molecule displayed a Ki of 142 ± 24 nM. For the same molecule, the activity at 0.05 µM in experiment [3] (50 nM compound) turned out to be 71%. Further, in experiment [3], the activity at 0.1 µM stood at 76% and the activity at 0.2 µM amounted to 80%.
The corresponding values for `CCC(=O)Nc1ccc(C(=O)/C=C(\O)C(F)(F)C(F)(F)F)cn1` [8b, N-(5-(4,4,5,5,5-Pentafluoro-3-hydroxypent-2-enoyl)pyridin-2-yl)propionamide] are 250 ± 20 nM, 27 ± 4 nM, 17%, 10% and 4%.
Taken in the same sequence, the figures for `O=C(/C=C(\O)C(F)(F)C(F)(F)F)c1ccc(NC(=O)c2ccccc2)nc1` [8c, N-(5-(4,4,5,5,5-Pentafluoro-3-hydroxypent-2-enoyl)pyridin-2-yl)benzamide] were 370 ± 20 nM, 16 ± 2 nM, 78%, 51% and 13%.
Regarding `O=C(/C=C(\O)C(F)(F)C(F)(F)F)c1cccc(O)c1` [compound 6, 4,4,5,5,5-Pentafluoro-3-hydroxy-1-(3-hydroxyphenyl)pent-2-en-1-one], the IC50 is 160 ± 10 nM at PfFNT [1] and 6710 nM at PfFNT G107S. Also, at PfFNT [2], the Ki is 26 ± 3 nM.
